Type in all cases: cell-based, rat
The subject of experiment [1] is MEF-2 reporter. Kind of experiment: 3×MEF2 promoter-luciferase reporter in H9C2 cells. To be noted: for MEF-2 reporter expression: agonist 100 μM. The source says: Plasmid constructs used. Gal4 DNA-binding domain constructs were generated by cloning cDNAs encoding constitutively active murine calcineurin (residues 1-398) and full length human MEF-2 into the pBIND expression vector (Promega, Inc.). VP16 fusion constructs were created by cloning full length human MCIP1 and HDAC5 cDNAs into the pACT expression vector (Promega, Inc.). In assays, Gal4 and VP16 fusion constructs were cotransfected with pG5-luc reporter (Promega), a firefly luciferase gene under control of a multimerized Gal4 promoter sequence. Promoter reporter constructs were generated by cloning the promoter regions of ANF, α-skeletal actin, IL-2 (with multiple NFAT binding sites) and myoglobin genes upstream of a promoter-less firefly luciferase open reading frame (pGL3 plasmid, Promega, Inc.). Similarly, three consensus MEF-2 binding sites or a single TATA element were cloned into pGL3. HDAC5-GFP construct was a gift from E. Olson, UT Southwestern Medical Center, Dallas Tex.
Cells culture and transient transfections. All muscle cell lines were obtained from the American Type Culture Collection (ATCC). Cells were cultured under conditions recommended by ATCC. Transient transfections were carried out in 96-well plates (5000 cells/well) using the Fugene transfection reagent (Roche), as per manufacturer's instructions. […] Forty-eight hours post-transfection, cells were processed for luciferase measurements.
Adenoviral constructs. Recombinant adenovirus α-skeletal actin-luc, and 3×MEF2-luc were constructed using the Adeasy vector system (Qbiogene) according to manufacturers instructions. Recombinant adenovirus HDAC5 and HDAC5-S259/498A were provided by E. Olson. Recombinant adenovirus MCIPexon4 was provided by S. Williams. Recombinant adenovirus β-galactosidase was from Qbiogene. Cells were plated in 96-well plates, and 24 hr after plating, were infected with recombinant adenovirus at moi of 50 in serum free media for three hrs. Forty-eight hrs after infection, the cells were lysed and luciferase levels were measured as above.
Luciferase measurement. Transiently transfected or adenovirus transfected cells were processed for luciferase activity using the Luc-Lite assay kit (Packard), as per manufacturer's instructions. Briefly, cells were washed in serum- and phenol red-free medium, then lysed in the presence of luciferase substrate to produce a long half-life “glow” luminescence. Relative light intensity was quantitated on a Fusion Universal Microplate Analyzer (Packard).
A general note: A reporter such as luciferase makes a cellular process visible.

Experiment [2] concerns hypertrophic promoter activity (ANF, NFAT, MEF2, aSkAct, Myb). Kind of experiment: hypertrophic promoter-luciferase constructs in H9C2 cells, agonist dose-response survey. To be noted: dose-response survey of agonists. As to the method:
FIG. 5—H9C2 promoter activity is unresponsive to the adrenergic agonists isoproterenol, norepinephrine and forskolin. H9 cells were transfected with promoter-luciferase contructs as shown and as described in materials and methods. Transfected cells were treated with hypertrophic agonists as shown. Luciferase units were measured and plotted as fraction of untreated control vs concentration of agonist used. Symbols ANF, NFAT, MEF2, aSkAct, and Myb are used as in FIG. 3.
Plasmid constructs used. Gal4 DNA-binding domain constructs were generated by cloning cDNAs encoding constitutively active murine calcineurin (residues 1-398) and full length human MEF-2 into the pBIND expression vector (Promega, Inc.). VP16 fusion constructs were created by cloning full length human MCIP1 and HDAC5 cDNAs into the pACT expression vector (Promega, Inc.). […] Promoter reporter constructs were generated by cloning the promoter regions of ANF, α-skeletal actin, IL-2 (with multiple NFAT binding sites) and myoglobin genes upstream of a promoter-less firefly luciferase open reading frame (pGL3 plasmid, Promega, Inc.). […]
Luciferase measurement. […] Briefly, cells were washed in serum- and phenol red-free medium, then lysed in the presence of luciferase substrate to produce a long half-life “glow” luminescence. Relative light intensity was quantitated on a Fusion Universal Microplate Analyzer (Packard).

Experiment [3] deals with alpha skeletal actin promoter. Kind of experiment: alpha skeletal actin promoter-luciferase reporter in H9C2 cells.
Description: Cells culture and transient transfections. […] Cells were cultured under conditions recommended by ATCC. Transient transfections were carried out in 96-well plates (5000 cells/well) using the Fugene transfection reagent (Roche), as per manufacturer's instructions. […] Forty-eight hours post-transfection, cells were processed for luciferase measurements.
Adenoviral constructs. Recombinant adenovirus α-skeletal actin-luc, and 3×MEF2-luc were constructed using the Adeasy vector system (Qbiogene) according to manufacturers instructions. […] Recombinant adenovirus β-galactosidase was from Qbiogene. Cells were plated in 96-well plates, and 24 hr after plating, were infected with recombinant adenovirus at moi of 50 in serum free media for three hrs. Forty-eight hrs after infection, the cells were lysed and luciferase levels were measured as above.
The mark [4] stands for this setting: drug added at transfection or expression construct, 48 h.
The mark [5] stands for this setting: recombinant adenovirus infection, moi of 50.

Regarding `CNC[C@H](O)c1cccc(O)c1` [phenylephrine], in experiment [1], the MEF-2 reporter expression result is listed as “unaffected”.

Turning to `CC(C)NCC(O)c1ccc(O)c(O)c1` (centres unmarked) [isoproterenol], the hypertrophic promoter activity result in experiment [2] is listed as “relatively unaffected”.

Regarding “HDAC: anti-hypertrophic gene product HDAC5, MEF-2 inhibitor, expressed by transfection or adenovirus”, in experiment [1] (setting [4]), the “expression of MEF-2 reporter” value is recorded as “significantly reduced”. In addition, the “expression of alpha skeletal actin reporter” value in experiment [3] (setting [4]) is listed as “significantly reduced”.

Consider `NC[C@H](O)c1ccc(O)c(O)c1` [norepinephrine], for which the hypertrophic promoter activity entry in experiment [2] was “relatively unaffected”.

Turning to “HDAC5-S259/498A: mutant of HDAC5 where serine residues 259 and 498 are replaced by alanine; super-repressor of the MEF-2 pathway”, the “repression of the 3×MEF2 promoter” value in experiment [1] (setting [5]) is “most effective repressor”. In addition, the “repression of the alpha-skeletal-actin promoter” value in experiment [3] (setting [5]) is given as “most effective repressor”.

For the molecule `CC[C@H](C)[C@H](NC(=O)[C@H](CC(=O)O)NC(=O)[C@H](CC(C)C)NC(=O)[C@H](Cc1c[nH]cn1)NC(=O)[C@@H]1CSSC[C@H](N)C(=O)N[C@@H](CO)C(=O)N[C@H]2CSSC[C@H](NC(=O)[C@H](CCC(=O)O)NC(=O)[C@H](CCCCN)NC(=O)[C@H](CC(=O)O)NC(=O)[C@H](CCSC)NC(=O)[C@H](CC(C)C)NC(=O)[C@H](CO)NC(=O)[C@H](CO)NC2=O)C(=O)N[C@@H](C(C)C)C(=O)N[C@@H](Cc2ccc(O)cc2)C(=O)N[C@@H](Cc2ccccc2)C(=O)N1)C(=O)N[C@H](C(=O)N[C@@H](Cc1c[nH]c2ccccc12)C(=O)O)[C@@H](C)CC` [endothelin], the MEF-2 reporter expression entry in experiment [1] is recorded as “unaffected”.
